Assay results reported in patent US7968093B2, “Fully human antibodies directed against the human insulin-like growth factor-1 receptor” (ImClone LLC, priority 2003, dated 2011).

Key:
MAPK = assay: IGF-I mediated MAPK phosphorylation, western blot; assay type: cell-based, human; conditions: MCF7 cells; IGF-I stimulated
Method: (§1) To visualize the inhibitory effect of the anti-IGF-IR antibodies on IGF-I signaling, receptor auto-phosphorylation and downstream effector molecule phosphorylation analysis was performed in the presence or absence of antibody A12 or 2F8. The MCF7 human breast cancer cell line was selected for use due to its high IGF-IR density. Cells were plated into 10 cm or 6 well culture dishes and grown to 70-80% confluence. The monolayers were then washed twice in PBS and cultured overnight in serum free defined medium. Anti-IGF-IR antibody was then added in fresh serum-free media (100 nM-10 nM) and incubated cells 30 minutes before addition of ligand (10 nM). Cells were incubated with ligand for 10 minutes, then placed on ice and washed with ice-cold PBS. […] Tyrosine phosphorylated protein was detected on the blot using an anti-p-tyrosine antibody (Cell Signaling #9411) and an anti-mouse-HRP secondary antibody. IGF-IR was detected with monoclonal antibody C-20 (Santa Cruz). For Akt phosphorylation, phospho-Akt was detected with antibody #559029 and total Akt with #559028 (BD Pharmingen). For MAPK phosphorylation, phospho-p44/42 was detected with #9101 and total p44/42 with #9102 (Cell Signaling Tech.). […]

Akt = assay: IGF-I mediated Akt phosphorylation, western blot; assay type: cell-based, human; conditions: MCF7 cells; IGF-I stimulated; A12 even at 10 nM
Method: as §1

IGF-IR on MCF7 cells = target: T1, IGF-IR on MCF7 cells (Homo sapiens, UniProt P08069); assay: Internalization of 125I-A12 after binding to IGF-IR; assay type: cell-based; conditions: 37° C., 30-180 minutes
T1 construct: endogenous in cells
Method: Antibody A12 was radio-iodinated with ^125iodine using IODO-beads (Pierce) according to manufacturer's instructions. MCF7 human breast cancer cells were plated into 6-well plates and cultured overnight to 50% confluence. One microgram of ^125I-A12 was added to each well and incubated at 37° C. or kept on ice at 4° C. Plates were incubated for 30 minutes, 90 minutes, or 180 minutes and each time point performed in triplicate. The culture at 4° C. was held for 180 minutes. At each time point, wells were washed 1× w/PBS, then stripped for 5 minutes with 100 mM glycine-HCl, 2M urea, pH 2.5. The stripped material, representing membrane bound antibody was kept on ice for counting. Wells were then washed 3 times with PBS and cells solubilized with 1N NaOH/1% TritonX100. The solubilized fraction represented the internalized antibody. Stripped and solubilized fractions were then read on a gamma counter and plotted with standard deviation.

[1] = test system: HT-29 human colon carcinoma; assay: HT-29 xenograft, A12 with CPT-11 or paclitaxel; assay type: in vivo, nu/nu mice
Method: […] nu/nu mice were injected subcutaneously with HT-29 human colon carcinoma cell suspension, at 5×10^6 cells in 0.4 ml mixed 1:1 with Matrigel. […] All treatments were administered by intraperitoneal injection.
Treatment continued for six weeks and tumor measurements were recorded twice weekly using the formula Volume=(π/6)l×w^2. At day 21 four animals per group were sacrificed and the tumors resected for histological evaluation. Treatment and tumor measurements continued on the remaining animals until day 40. At that time final tumor measurements were recorded, animals sacrificed, and four per group had tumor resected for endpoint histological evaluation.

IGF-IR = IGF-IR (Homo sapiens, UniProt P08069); assay: FACs binding analysis to human cell lines; assay type: cell-based; design: endogenous in cells; HT-29; BxPC-3; HEL; conditions: 0.5 μg A12
Method: Since A12 was capable of immunoprecipitating endogenous IGF-IR, we were therefore interested in determining if A12 could also be used as detection antibody for fluorescence activated cell sorting (FACs). Human tumor cell lines were grown in culture, scraped into ice-cold PBS, and counted. Primary antibody, A12 (0.5 μg), was added to approximately 5 million cells in 250 μl PBS/5% FBS and incubated on ice for 1 hour. The cells were then diluted to 3 mls in PBS/5% FBS, pelleted, and the supernatant aspirated. Secondary phycoerythin (PE)-labeled goat anti-human IgG F(ab)2 fragment was then added in 250 μl PBS/5% FBS at 1:200 and incubated on ice for 60 minutes. Afterwards, the cells were again diluted and pelleted, as before, then resuspended in 500 μl PBS/5% FBS. FACs analysis was then performed on a Epics XL unit (Coulter). […] IGF-IR negative mouse embryo fibroblasts (R-cells) (obtained from R. Baserga, Thomas Jefferson University, Philadelphia, Pa.) served as the negative control.

With “A12: fully human IgG1 anti-IGF-IR antibody, lambda light chain; VH SEQ ID NO:2, VL SEQ ID NO:10; affinity matured from 2F8” the “inhibition of MAPK phosphorylation” value (MAPK) was “considerably inhibited”, the “inhibition of Akt phosphorylation” value (Akt) was “significantly inhibited Akt phosphorylation” and the “internalization of labeled antibody” value (IGF-IR on MCF7 cells) was “rapidly internalized”. It also gave a T/C % ([1]; day 12, ip, A12 1 mg 3 times per week, irinotecan 2 mg or paclitaxel 121 μg every 7 days) of 69%, a T/C % ([1]; day 15, same regimens) of 62% and a T/C % ([1]; day 19, same regimens) of 64%. The T/C % ([1]; day 22, same regimens) was 58%, the T/C % ([1]; day 26, same regimens) was 62% and the T/C % ([1]; day 29, same regimens) was 61%. It also gave a T/C % ([1]; day 33, same regimens) of 58%, a T/C % ([1]; day 36, same regimens) of 53% and a T/C % ([1]; day 40, same regimens) of 54%. The “inhibition of growth of HT-29 xenografts compared to TBS control” value ([1]; single agent) was “significantly (P<0.02) inhibited”, the FACs shift (IGF-IR; HEL human leukemia cell line) was “fully shifted” and the FACs shift (IGF-IR; MCF7 human breast cancer cell line) was “fully shifted”.
